Several values for one entry are separate records, joined by “and”; a condition that tells them apart may be missing. Equal values may be shown once. Inconclusive results and toxic doses are left out. How the source made its calls: active means survival T/C of 150% or more; inactive means T/C below 125% in these data.
Test system: P388 leukemia ip, CD2F1 mice, survival T/C
Assay: NCI In Vivo Anticancer Drug Screen. Data for tumor model P388 Leukemia (intraperitoneal) in CD2F1 (CDF1) mice
Details: endpoint: median survival time, higher = longer survival
Method in brief: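 Mice carrying the transplanted tumor received test compound or vehicle. Survival was recorded in each group, and the value is the treated-group measurement divided by that of the vehicle-treated control group.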

[1] = dose: 6.25 mg/kg/injection, schedule: Q01DX009 (ip), vehicle: saline with Tween-80
[2] = dose: 12.5 mg/kg/injection, schedule: Q01DX009 (ip), vehicle: saline with Tween-80
[3] = dose: 25.0 mg/kg/injection, schedule: Q01DX009 (ip), vehicle: saline with Tween-80
[4] = dose: 100.0 mg/kg/injection, schedule: Q04DX003 (ip), vehicle: Klucel (hydroxypropylcellulose) (HPC)
[5] = dose: 200.0 mg/kg/injection, schedule: Q04DX003 (ip), vehicle: Klucel (hydroxypropylcellulose) (HPC)
[6] = dose: 60.0 mg/kg/injection, schedule: Q01DX005 (ip), vehicle: Klucel (hydroxypropylcellulose) (HPC)
[7] = dose: 240.0 mg/kg/injection, schedule: Q01DX005 (ip), vehicle: Klucel (hydroxypropylcellulose) (HPC)
[8] = dose: 50.0 mg/kg/injection, schedule: Q01DX005 (ip), vehicle: saline with Tween-80
[9] = dose: 50.0 mg/kg/injection, schedule: Q01DX005 (ip), vehicle: Klucel (hydroxypropylcellulose) (HPC)
[10] = dose: 100.0 mg/kg/injection, schedule: Q01DX005 (ip), vehicle: Klucel (hydroxypropylcellulose) (HPC)
[11] = dose: 200.0 mg/kg/injection, schedule: Q01DX005 (ip), vehicle: Klucel (hydroxypropylcellulose) (HPC)
[12] = dose: 50.0 mg/kg/injection, schedule: Q01DX009 (ip), vehicle: Klucel (hydroxypropylcellulose) (HPC)
[13] = dose: 100.0 mg/kg/injection, schedule: Q01DX009 (ip), vehicle: Klucel (hydroxypropylcellulose) (HPC)
[14] = dose: 100.0 mg/kg/injection, schedule: Q01DX009 (ip), vehicle: saline with Tween-80
[15] = dose: 200.0 mg/kg/injection, schedule: Q01DX009 (ip), vehicle: saline with Tween-80
[16] = dose: 25.0 mg/kg/injection, schedule: Q01DX009 (ip), vehicle: saline
[17] = dose: 50.0 mg/kg/injection, schedule: Q01DX009 (ip), vehicle: saline with Tween-80
[18] = dose: 60.0 mg/kg/injection, schedule: Q01DX005 (ip), vehicle: saline with Tween-80
[19] = dose: 120.0 mg/kg/injection, schedule: Q01DX005 (ip), vehicle: saline with Tween-80
[20] = dose: 60.0 mg/kg/injection, schedule: Q01DX005 (ip), vehicle: saline

Measured: T/C

Cc1nc(C#N)c(=N)n(O)c1Cl
inactive: [1] 99 % of control and 102 % of control and 123 % of control | [2] 104 % of control and 106 % of control | [3] 110 % of control and 113 % of control

CC(=O)OCC#CCOC(C)=O
inactive: dose: 12.5 mg/kg/injection, schedule: Q01DX009 (ip), vehicle: saline sonified 100 % of control | dose: 25.0 mg/kg/injection, schedule: Q01DX009 (ip), vehicle: saline sonified 100 % of control | dose: 50.0 mg/kg/injection, schedule: Q01DX009 (ip), vehicle: saline sonified 100 % of control

CCC1C(=O)OCC1Cc1cncn1C (stereo not given)
inactive: dose: 50.0 mg/kg/injection, schedule: Q01DX005 (ip), vehicle: saline 100 % of control | dose: 100.0 mg/kg/injection, schedule: Q01DX005 (ip), vehicle: saline 94 % of control | dose: 200.0 mg/kg/injection, schedule: Q01DX005 (ip), vehicle: saline 98 % of control

COc1cc(/C=C/C=C/c2ccccc2)oc(=O)c1
inactive: [4] 91 % of control | [5] 90 % of control | dose: 400.0 mg/kg/injection, schedule: Q04DX003 (ip), vehicle: Klucel (hydroxypropylcellulose) (HPC) 92 % of control

Cc1csc2nc(-c3cccs3)nn12
inactive: dose: 30.0 mg/kg/injection, schedule: Q01DX005 (ip), vehicle: Klucel (hydroxypropylcellulose) (HPC) 103 % of control | [6] 98 % of control | dose: 120.0 mg/kg/injection, schedule: Q01DX005 (ip), vehicle: Klucel (hydroxypropylcellulose) (HPC) 103 % of control | [7] 105 % of control

CCCCN1CCC(CNc2ccnc3cc(Cl)ccc23)C1 (stereo not given)
inactive: dose: 12.5 mg/kg/injection, schedule: Q01DX005 (ip), vehicle: saline with Tween-80 93 % of control | dose: 25.0 mg/kg/injection, schedule: Q01DX005 (ip), vehicle: saline with Tween-80 90 % of control | [8] 109 % of control and 93 % of control

Cc1nc2ncn(-c3ccccc3)c2c(=O)n1-c1ccccc1
inactive: [9] 100 % of control | [10] 100 % of control | [11] 100 % of control

CCN(CC)C1CS(=O)(=O)OC2=C1CCCc1ccccc12 (stereo not given)
inactive: dose: 25.0 mg/kg/injection, schedule: Q01DX009 (ip), vehicle: Klucel (hydroxypropylcellulose) (HPC) 102 % of control | [12] 104 % of control | [13] 95 % of control

OC1(c2ccccc2)CSC2=Nc3ccccc3C3CCN1N23 (stereo not given)
inactive: [2] 108 % of control and 87 % of control | [14] 122 % of control and 95 % of control | [15] 99 % of control

c1ccc(P2(c3ccccc3)(c3ccccc3)OCC3CC32)cc1 (stereo not given)
inactive: dose: 3.13 mg/kg/injection, schedule: Q01DX009 (ip), vehicle: saline with Tween-80 103 % of control | dose: 3.13 mg/kg/injection, schedule: Q01DX009 (ip), vehicle: saline 94 % of control | [1] 106 % of control | dose: 6.25 mg/kg/injection, schedule: Q01DX009 (ip), vehicle: saline 98 % of control | [2] 103 % of control and 124 % of control | dose: 12.5 mg/kg/injection, schedule: Q01DX009 (ip), vehicle: saline 95 % of control | [3] 100 % of control and 111 % of control | [16] 100 % of control | dose: 50.0 mg/kg/injection, schedule: Q01DX009 (ip), vehicle: olive oil, sesame oil, peanut oil 95 % of control | [17] 102 % of control

CSC(N)=Nc1cccc2c1CCCC2
inactive: [16] 100 % of control | dose: 50.0 mg/kg/injection, schedule: Q01DX009 (ip), vehicle: saline 100 % of control | dose: 100.0 mg/kg/injection, schedule: Q01DX009 (ip), vehicle: saline 95 % of control

O=[N+]([O-])c1cnc(/C=N/N2CCN(/N=C/c3ncc([N+](=O)[O-])[nH]3)CC2)[nH]1
inactive: [2] 90 % of control | [3] 89 % of control | [17] 88 % of control

CCC(C(=O)N(C)C)n1nc(Br)c(Br)c1C (stereo not given)
inactive: [4] 97 % of control | [5] 95 % of control

COC1/C=C/OC2(C)Oc3c(C)c(O)c4c(O)c(c(/C=N/N5CCCN(C)CC5)c(O)c4c3C2=O)NC(=O)/C(C)=C\C=C\C(C)C(O)C(C)C(O)C(C)C(OC(C)=O)C1C (stereo not given)
inactive: [17] 104 % of control | [14] 100 % of control | [15] 102 % of control

COc1cc2cc(-c3ccccn3)nc(N)c2cc1OC
inactive: [18] 100 % of control | [19] 101 % of control

CCOC1=N[C@H]2CCCC[C@H]2N1
inactive: dose: 15.0 mg/kg/injection, schedule: Q01DX005 (ip), vehicle: saline 98 % of control | dose: 30.0 mg/kg/injection, schedule: Q01DX005 (ip), vehicle: saline 96 % of control | [20] 102 % of control and 98 % of control

ClC1CN2CCC1CC2 (stereo not given)
inactive: [2] 91 % of control | [3] 95 % of control | [17] 100 % of control

CCCN1C(C)=C(C#N)C2(C(=O)Nc3ccccc32)C(C#N)=C1C
inactive: [9] 99 % of control | [10] 102 % of control | [11] 102 % of control

CCOC(=O)Cn1/c(=N/N=C/c2ccc([N+](=O)[O-])o2)sc2cc(OC)ccc21
inactive: dose: 3.75 mg/kg/injection, schedule: Q01DX005 (ip), vehicle: saline with Tween-80 97 % of control | dose: 7.5 mg/kg/injection, schedule: Q01DX005 (ip), vehicle: saline with Tween-80 90 % of control | [6] 87 % of control | [7] 86 % of control

C=CC(=O)N(C)c1nc(N(C)C)nc(N(C)C)n1
inactive: [9] 102 % of control | [10] 108 % of control

O=C1c2cc(Cl)ccc2NC(O)c2cccn21 (stereo not given)
inactive: dose: 0.1 mg/kg/injection, schedule: Q01DX005 (ip), vehicle: water 93 % of control | dose: 0.2 mg/kg/injection, schedule: Q01DX005 (ip), vehicle: water 89 % of control | dose: 0.4 mg/kg/injection, schedule: Q01DX005 (ip), vehicle: water 90 % of control | dose: 0.8 mg/kg/injection, schedule: Q01DX005 (ip), vehicle: water 98 % of control | dose: 1.6 mg/kg/injection, schedule: Q01DX005 (ip), vehicle: water 98 % of control | dose: 5.0 mg/kg/injection, schedule: Q01DX005 (ip), vehicle: distilled water + Tween-80 95 % of control | dose: 10.0 mg/kg/injection, schedule: Q01DX005 (ip), vehicle: distilled water + Tween-80 101 % of control | dose: 20.0 mg/kg/injection, schedule: Q01DX005 (ip), vehicle: distilled water + Tween-80 95 % of control | dose: 40.0 mg/kg/injection, schedule: Q01DX005 (ip), vehicle: distilled water + Tween-80 92 % of control | dose: 80.0 mg/kg/injection, schedule: Q01DX005 (ip), vehicle: distilled water + Tween-80 93 % of control

CCCCOCN(COCCCC)C(C)Cc1ccccc1 (stereo not given)
inactive: [3] 120 % of control

Nc1nc(-c2ccncc2)cc(-c2cc(-c3ccncc3)nc(N)n2)n1
inactive: [20] 102 % of control | dose: 120.0 mg/kg/injection, schedule: Q01DX005 (ip), vehicle: saline 96 % of control

NC(=O)c1nccnc1Cl
inactive: [12] 101 % of control | [13] 100 % of control | dose: 200.0 mg/kg/injection, schedule: Q01DX009 (ip), vehicle: Klucel (hydroxypropylcellulose) (HPC) 114 % of control

CC[As](=O)(O)CC(C)C
inactive: dose: 25.0 mg/kg/injection, schedule: Q04DX002 (ip), vehicle: saline 100 % of control | dose: 50.0 mg/kg/injection, schedule: Q04DX002 (ip), vehicle: saline 100 % of control

OCc1c(Cl)nc2n1CCS2
inactive: dose: 25.0 mg/kg/injection, schedule: Q01DX001 (ip), vehicle: saline with Tween-80 104 % of control | dose: 50.0 mg/kg/injection, schedule: Q01DX001 (ip), vehicle: saline with Tween-80 104 % of control

CCN(CC)CCNc1ccc(C)c2sc3c(O)cccc3c(=O)c12
inactive: [17] 104 % of control | [14] 100 % of control | [15] 104 % of control

O=C1C2C3C=CC(O3)C2C(=O)N1/N=C/c1cccc2ccccc12 (stereo not given)
inactive: [8] 99 % of control | dose: 100.0 mg/kg/injection, schedule: Q01DX005 (ip), vehicle: saline with Tween-80 96 % of control | dose: 200.0 mg/kg/injection, schedule: Q01DX005 (ip), vehicle: saline with Tween-80 89 % of control

O=C(O)c1c2c(nc3ccccc13)CCC(C(=O)O)C2 (stereo not given)
inactive: [18] 96 % of control | [19] 102 % of control | dose: 240.0 mg/kg/injection, schedule: Q01DX005 (ip), vehicle: saline with Tween-80 96 % of control

Reference: PubChem BioAssay AID330 (DTP/NCI, 2004)
